Data on one compound can be found in patent US20210196793A1, “Pharmaceutical Combination Comprising Epidermal Growth Factor and Secretagogue Peptide GHRP6 for the Restoration of Brain Damage” (CENTRO DE INGENIERÍA GENÉTICA Y BIOTECNOLOGÍA, priority 2018, published 2021).

The subject of this experiment is patients with Amyotrophic Lateral Sclerosis. Kind of experiment: Patients with Amyotrophic Lateral Sclerosis, ALSFRS-R functional scale. Particulars: for ALSFRS-R before treatment: baseline. It counts as in vivo, human. How it is done:
Forty patients with definite diagnosis of Amyotrophic Lateral Sclerosis were treated with EGF 0.6 μg/kg of body weight, and GHRP6 60 μg/kg of body weight, intravenously, every other day, during 6 months, together with Rilutek® (Riluzole). Previously, these patients were stratified according to the origin of the disease, spinal (n=25) or bulbar (n=15). Another group of 30 patients with definite diagnosis of Amyotrophic Lateral Sclerosis, also stratified according to origin, spinal (n=21) or bulbar (n=9), were treated only with Rilutek®.
Before the beginning and after the end of the trial, all patients were evaluated using the functional scale for Amyotrophic Lateral Sclerosis (ALSFRS-R). The ALSFRS-R scale is usually used for the neurological and functional evaluation of patients with said disease. This scale includes various functional items, such as those related to language, salivation, swallowing, the ability to write, handling eating utensils, dressing and sanitizing, turning in bed, climbing stairs, and breathing.

Take `Nc1nc2ccc(OC(F)(F)F)cc2s1` [Rilutek ®, Riluzole]: where the note is “after 6 months of treatment, spinal and bulbar onset”, the “clinical improvement (salivation, swallowing, breathing, dysarthria)” value is reported as “None of the latter was observed”. The “ALSFRS-R after the treatment” value (bulbar origin, after 6 months of treatment) is reported as 33.1 ± 8.32 and the “ALSFRS-R after the treatment” value (spinal origin, after 6 months of treatment) turned out to be 38.2 ± 3.34. Further, the ALSFRS-R before treatment is reported as 35.1 ± 6.2 (bulbar origin) and 38.7 ± 4.4 (spinal origin).
